Measured values as given in the supplement of paper PMC10307832.

Legend:
Test in all cases: relative viability (nuclei count vs DMSO), 5 days (fraction); higher = more cells survive
Doramapimod + Trametinib = compound: Cc1ccc(-n2nc(C(C)(C)C)cc2NC(=O)Nc2ccc(OCCN3CCOCC3)c3ccccc23)cc1 [Doramapimod] + CC(=O)Nc1cccc(-n2c(=O)n(C3CC3)c(=O)c3c(Nc4ccc(I)cc4F)n(C)c(=O)c(C)c32)c1 [Trametinib] (partner 0.02 µM)
Method in brief: (§1)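 A single step with final 0.05% Triton X-100, 1% formaldehyde and 1 ug/ml Hoechst fixed the cells and stained nuclei 5 days after treatment. Lung cancer cell lines in 1536-well plates had been treated by pin tool the day after seeding with one drug alone or a fixed anchor-drug dose plus five library-drug doses (not always all listed) in √10 steps, and nuclei were counted on 4× images. Relative viability is the ratio of nuclei in treated wells to nuclei in vehicle wells, taken as the median of duplicate plates.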

IPA-3 + Lapatinib = compound: C1=CC=C2C(=C1)C=CC(=C2SSC3=C(C=CC4=CC=CC=C43)O)O [IPA-3] + CS(=O)(=O)CCNCc1ccc(-c2ccc3ncnc(Nc4ccc(OCc5cccc(F)c5)c(Cl)c4)c3c2)o1 [Lapatinib] (partner 2 µM)
Method in brief: as §1

RAF265 + Luminespib = compound: Cn1c(Nc2ccc(C(F)(F)F)cc2)nc2cc(Oc3ccnc(-c4ncc(C(F)(F)F)[nH]4)c3)ccc21 [RAF265] + CCNC(=O)c1noc(-c2cc(C(C)C)c(O)cc2O)c1-c1ccc(CN2CCOCC2)cc1 [Luminespib] (partner 0.01 µM)
Method in brief: as §1

RAF265 + Dasatinib = compound: Cn1c(Nc2ccc(C(F)(F)F)cc2)nc2cc(Oc3ccnc(-c4ncc(C(F)(F)F)[nH]4)c3)ccc21 [RAF265] + Cc1nc(Nc2ncc(C(=O)Nc3c(C)cccc3Cl)s2)cc(N2CCN(CCO)CC2)n1 [Dasatinib] (partner 0.075 µM)
Method in brief: as §1

Cell Line: UMC-11
- relative viability (Doramapimod + Trametinib; first compound 0.02 µM): 0.689
- relative viability (Doramapimod + Trametinib; first compound 0.06325 µM): 0.638
- relative viability (Doramapimod + Trametinib; first compound 0.2 µM): 0.621
- relative viability (Doramapimod + Trametinib; first compound 0.6325 µM): 0.463
- relative viability (Doramapimod + Trametinib; first compound 2 µM): 0.539
- relative viability (IPA-3 + Lapatinib; first compound 0.2 µM): 0.944
- relative viability (IPA-3 + Lapatinib; first compound 0.6325 µM): 1.1
- relative viability (IPA-3 + Lapatinib; first compound 2 µM): 0.956
- relative viability (IPA-3 + Lapatinib; first compound 6.325 µM): 0.804
- relative viability (IPA-3 + Lapatinib; first compound 20 µM): 1.06
- relative viability (RAF265 + Luminespib; first compound 0.01 µM): 0.984
- relative viability (RAF265 + Luminespib; first compound 0.03162 µM): 1.01
- relative viability (RAF265 + Luminespib; first compound 0.1 µM): 1.06
- relative viability (RAF265 + Luminespib; first compound 0.3162 µM): 1.01
- relative viability (RAF265 + Luminespib; first compound 1 µM): 0.936
- relative viability (RAF265 + Dasatinib; first compound 0.01 µM): 0.443
- relative viability (RAF265 + Dasatinib; first compound 0.03162 µM): 0.442
- relative viability (RAF265 + Dasatinib; first compound 0.1 µM): 0.457
- relative viability (RAF265 + Dasatinib; first compound 0.3162 µM): 0.444
- relative viability (RAF265 + Dasatinib; first compound 1 µM): 0.4
